Among the data in ChEMBL document CHEMBL4145537, “Synthesis and biological evaluation of novel quinazoline-4-piperidinesulfamide derivatives as inhibitors of NPP1” (Eur J Med Chem, 2018) are inhibition and Ki values, retold here.

SMILES strings stand for the structures. pKi: −log10 of the molar value.

Test [1] has as its target T1, Ectonucleotide pyrophosphatase/phosphodiesterase family member 1 (Homo sapiens) (UniProt P22413).
T1 sequence (whole entry): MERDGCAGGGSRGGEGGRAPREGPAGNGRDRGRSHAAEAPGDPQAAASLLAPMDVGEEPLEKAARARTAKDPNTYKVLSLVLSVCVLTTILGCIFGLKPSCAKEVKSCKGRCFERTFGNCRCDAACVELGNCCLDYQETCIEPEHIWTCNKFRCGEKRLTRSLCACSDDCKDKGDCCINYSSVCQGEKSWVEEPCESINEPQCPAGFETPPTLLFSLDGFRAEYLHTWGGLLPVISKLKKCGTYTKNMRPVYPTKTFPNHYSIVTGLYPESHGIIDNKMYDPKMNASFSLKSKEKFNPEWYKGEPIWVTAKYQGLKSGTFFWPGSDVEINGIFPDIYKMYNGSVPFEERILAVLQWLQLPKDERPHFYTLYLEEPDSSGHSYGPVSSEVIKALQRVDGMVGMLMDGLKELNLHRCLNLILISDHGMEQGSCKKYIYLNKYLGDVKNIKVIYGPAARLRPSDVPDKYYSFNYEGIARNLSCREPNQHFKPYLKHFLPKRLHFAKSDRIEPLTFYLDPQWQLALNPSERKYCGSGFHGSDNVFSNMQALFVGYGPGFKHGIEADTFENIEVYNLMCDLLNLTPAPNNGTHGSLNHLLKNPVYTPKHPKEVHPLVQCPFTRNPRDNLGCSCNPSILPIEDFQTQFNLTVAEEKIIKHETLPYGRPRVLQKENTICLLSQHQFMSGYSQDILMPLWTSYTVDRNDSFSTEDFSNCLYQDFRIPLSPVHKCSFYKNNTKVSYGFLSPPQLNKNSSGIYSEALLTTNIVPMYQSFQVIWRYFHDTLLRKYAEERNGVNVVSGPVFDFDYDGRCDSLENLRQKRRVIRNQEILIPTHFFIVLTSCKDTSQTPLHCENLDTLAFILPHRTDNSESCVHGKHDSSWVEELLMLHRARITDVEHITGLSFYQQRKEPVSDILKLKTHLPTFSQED
As to the kind of experiment: Inhibition of human GFP-fused NPP1 expressed in COS7 cells at 1 uM using pnp-TMP as substrate after 60 mins relative to control. It is filed as cell-based.

Test [2] has as its target T2, Ectonucleotide pyrophosphatase/phosphodiesterase family member 1 (Homo sapiens, UniProt P22413).
T2 sequence (P22413 whole entry): T1 sequence (whole entry)
As to the kind of experiment: Inhibition of human GFP-fused NPP1 expressed in COS7 cells using pnp-TMP as substrate after 60 mins. It is filed as cell-based.

In general, inhibition refers to the drop in the measured response relative to a control, in per cent. A higher inhibition goes with strong suppression. The molecule `COc1cc2ncnc(N3CCC(CCNS(C)(=O)=O)CC3)c2cc1OC` showed an inhibition in test [1] of 12%.
As usually defined, the pKi is the negative decadic logarithm of the Ki, by convention in mol/L. In test [2], `CCCOc1cc2c(Cl)ncnc2cc1OC` showed a negative-log Ki (pKi) of 5.49. In addition, in test [1], the inhibition is 29%.
For `COc1cc2nc(CCc3ccc(F)cc3)nc(N3CCC(CCNS(N)(=O)=O)CC3)c2cc1OC` the same measures were 6.44 and 69%.
On to `COc1cc2ncnc(N3CCC(CO)CC3)c2cc1OC`, for which the inhibition in test [1] was found to be 11%.
As to `COc1ccc(/C=C/c2nc(N3CCC(CCNS(N)(=O)=O)CC3)c3cc(OC)c(OC)cc3n2)cc1`, the pKi in test [2] was 6.64. Also, in test [1], the inhibition came out at 66%.
The matching figures for `COc1cc2nc(/C=C/c3ccc(F)cc3)nc(N3CCC(CCNS(N)(=O)=O)CC3)c2cc1OC`: 6.33 and 70%.
For `COc1cc2nc(/C=C/c3cccc(F)c3)nc(N3CCC(CCNS(N)(=O)=O)CC3)c2cc1OC` the same measures were 5.45 and 14%.
For `COc1cc2nc(CC3OC(=O)c4ccccc43)nc(N3CCC(CCNS(N)(=O)=O)CC3)c2cc1OC` (stereo not given) the same measures were 7.05 and 79%.
`COc1cc2ncnc(N3CCC(CC#N)CC3)c2cc1OC` showed an inhibition in test [1] of under 1%.
Take `COc1cc2ncnc(N3CCC(CCNS(N)(=O)=O)CC3)c2cc1OC`: the inhibition in test [1] came to 87%.
Still for that read-out and setting: then `CCOC(=O)C1CCN(c2ncnc3cc(OC)c(OC)cc23)CC1`, with 12%.
Turning to `COc1cc2nc(/C=C/c3ccccc3)nc(N3CCC(CCNS(N)(=O)=O)CC3)c2cc1OC`, the pKi in test [2] was 5.74. For the same molecule, the inhibition in test [1] is 33%.
For `COc1ccc2ncnc(N3CCC(CCNS(N)(=O)=O)CC3)c2c1` the same measures were 6.62 and 71%.
For `COc1cc2nc(/C=C/c3ccncc3)nc(N3CCC(CCNS(N)(=O)=O)CC3)c2cc1OC` the same measures were 6.66 and 79%.
The matching figures for `CCOc1cc2c(Cl)ncnc2cc1OC`: 5.88 and 48%.
Molecule `COC(=O)c1cccc(/C=C/c2nc(N3CCC(CCNS(N)(=O)=O)CC3)c3cc(OC)c(OC)cc3n2)c1` had a pKi in test [2] of 6.53. In addition, the inhibition in test [1] is 74%.
The matching figures for `COc1cc2ncnc(Cl)c2cc1OC/C=C/S(F)(F)(F)(F)F`: 5.10 and 15%.
The matching figures for `COc1cc2nc(/C=C/c3ccccn3)nc(N3CCC(CCNS(N)(=O)=O)CC3)c2cc1OC`: 7.15 and 85%.
For `COc1cccc(/C=C/c2nc(N3CCC(CCNS(N)(=O)=O)CC3)c3cc(OC)c(OC)cc3n2)c1` the same measures were 7.00 and 88%.
In the case of `COc1cc2ncnc(N3CCC(CCNC(C)=O)CC3)c2cc1OC`, the inhibition in test [1] stood at 9%.
Turning to `COc1cc2nc(/C=C/c3ccccc3F)nc(N3CCC(CCNS(N)(=O)=O)CC3)c2cc1OC`, the pKi in test [2] is 6.68. This molecule also displayed an inhibition in test [1] of 78%.
For `COc1ccccc1/C=C/c1nc(N2CCC(CCNS(N)(=O)=O)CC2)c2cc(OC)c(OC)cc2n1` the same measures were 6.52 and 74%.
In turn, `CCCCOc1cc2c(Cl)ncnc2cc1OC` came in with an inhibition in test [1] of under 1%.
Molecule `COc1cc2ncnc(N3CCC(CCN)CC3)c2cc1OC` gave a pKi in test [2] of 6.16. In addition, the inhibition in test [1] turned out to be 45%.
The matching figures for `COC(=O)c1ccc(/C=C/c2nc(N3CCC(CCNS(N)(=O)=O)CC3)c3cc(OC)c(OC)cc3n2)cc1`: 5.87 and 43%.
The matching figures for `COc1cc2nc(/C=C/c3cccnc3)nc(N3CCC(CCNS(N)(=O)=O)CC3)c2cc1OC`: 7.24 and 86%.
